Each structure is given as a SMILES string. In brackets after ≈: the same amount, converted by molar mass. Activity calls are given as the source filed them. No cut-off for these calls is given here.

By inhibition is commonly meant the drop in the measured response relative to a control, in per cent. A word on the bioavailability: it is the share of a dose that reaches the circulation, judged against a reference dose that is usually intravenous. As a reminder, the solubility is the concentration that dissolves in the medium under given conditions. For orientation: efflux ratio means a quotient of directional permeabilities that is used to spot active efflux. One may read the Papp as the rate of passage across a membrane or cell layer, normalised by area and donor concentration. Usually IC50 stands for the midpoint of a concentration-inhibition curve. One may read the half-life as how long it takes for the measured level to halve.

One data set relates to GIST-430/654. The class given is functional, organism-based. The conditions noted are these: Homo sapiens, dose 10-35 mg/kg, route po, time 30.0 day.
Data set [1] deals with Mast/stem cell growth factor receptor Kit (Homo sapiens, UniProt P10721). Put plainly: Inhibition of wild type KIT (unknown origin) at 1 uM using 33P-ATP as substrate incubated for 120 mins by radiometric kinase assay.
Mast/stem cell growth factor receptor Kit (Homo sapiens, UniProt P10721), sequence (P10721 whole entry): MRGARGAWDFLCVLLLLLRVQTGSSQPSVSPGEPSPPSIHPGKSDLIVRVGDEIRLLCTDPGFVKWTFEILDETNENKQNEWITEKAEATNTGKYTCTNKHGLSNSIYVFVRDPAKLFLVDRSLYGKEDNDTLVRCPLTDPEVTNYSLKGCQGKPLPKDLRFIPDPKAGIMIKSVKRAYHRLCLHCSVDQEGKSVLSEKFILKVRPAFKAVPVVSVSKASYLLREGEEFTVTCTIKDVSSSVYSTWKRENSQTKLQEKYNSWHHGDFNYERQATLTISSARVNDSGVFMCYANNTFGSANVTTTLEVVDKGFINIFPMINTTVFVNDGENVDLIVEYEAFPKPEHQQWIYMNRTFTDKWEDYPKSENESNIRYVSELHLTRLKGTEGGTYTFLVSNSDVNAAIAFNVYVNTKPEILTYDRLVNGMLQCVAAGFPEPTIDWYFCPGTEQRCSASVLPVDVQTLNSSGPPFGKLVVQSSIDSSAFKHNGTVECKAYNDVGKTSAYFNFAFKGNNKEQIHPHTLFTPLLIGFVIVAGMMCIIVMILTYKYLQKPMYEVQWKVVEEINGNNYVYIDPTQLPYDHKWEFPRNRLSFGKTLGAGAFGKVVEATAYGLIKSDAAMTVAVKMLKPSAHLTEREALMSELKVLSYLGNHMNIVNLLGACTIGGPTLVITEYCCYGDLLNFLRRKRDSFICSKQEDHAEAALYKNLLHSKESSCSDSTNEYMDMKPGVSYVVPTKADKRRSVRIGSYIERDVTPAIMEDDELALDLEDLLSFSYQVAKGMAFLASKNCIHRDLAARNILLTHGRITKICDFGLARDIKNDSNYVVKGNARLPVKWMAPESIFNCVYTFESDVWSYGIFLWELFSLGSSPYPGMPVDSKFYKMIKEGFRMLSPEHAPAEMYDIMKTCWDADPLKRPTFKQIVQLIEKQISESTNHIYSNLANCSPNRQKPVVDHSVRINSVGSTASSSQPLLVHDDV
A short description of data set [2]: Oral bioavailability in Beagle dog at 20 mg/kg and measured upto 24 hrs. The conditions noted are these: in vivo. The class given is ADME, organism-based, Canis lupus familiaris.
Data set [3] is described as follows: Solubility of compound in FaSSIF at pH 6.5. The class given is physicochemical.
The next data set has as its system GIST430. The class given is functional, cell-based. The conditions noted are these: Homo sapiens, dose 10.0 µM.
Data set [4] is described as follows: Efflux ratio of apparent permeability from basolateral to apical side over apical to basolateral side in human Caco-2 cells at 1 uM and measured after 2 hrs by LC-MS/MS analysis. The class given is ADME, cell-based. Background: Caco-2 monolayers are a common model of the intestinal barrier.
Data set [5] in a line: Volume of distribution at steady state in CD-1 mouse at 0.2 mg/kg, iv and measured upto 24 hrs. The class given is ADME, organism-based. The conditions noted are these: in vivo, read-out: Vdss.
Data set [6] concerns Mast/stem cell growth factor receptor Kit (Homo sapiens), P10721 [V559A]. Put plainly: Inhibition of recombinant human KIT V559A mutant in exon 11 using polyGT and ATP as substrate preincubated for 20 mins followed by substrate addition and measured after 240 mins by FRET assay. The conditions noted are these: time 260.0 min.
Mast/stem cell growth factor receptor Kit (Homo sapiens), P10721 [V559A], sequence (P10721 whole entry V559A): as the sequence (P10721 whole entry) above, with V559A counted along it
The target of data set [7] is T1, Platelet-derived growth factor receptor alpha (Homo sapiens, UniProt P16234). Nature of the data set: Inhibition of PDGFRA (unknown origin) at 1 uM using 33P-ATP as substrate incubated for 120 mins by radiometric kinase assay.
T1 sequence (P16234 whole entry): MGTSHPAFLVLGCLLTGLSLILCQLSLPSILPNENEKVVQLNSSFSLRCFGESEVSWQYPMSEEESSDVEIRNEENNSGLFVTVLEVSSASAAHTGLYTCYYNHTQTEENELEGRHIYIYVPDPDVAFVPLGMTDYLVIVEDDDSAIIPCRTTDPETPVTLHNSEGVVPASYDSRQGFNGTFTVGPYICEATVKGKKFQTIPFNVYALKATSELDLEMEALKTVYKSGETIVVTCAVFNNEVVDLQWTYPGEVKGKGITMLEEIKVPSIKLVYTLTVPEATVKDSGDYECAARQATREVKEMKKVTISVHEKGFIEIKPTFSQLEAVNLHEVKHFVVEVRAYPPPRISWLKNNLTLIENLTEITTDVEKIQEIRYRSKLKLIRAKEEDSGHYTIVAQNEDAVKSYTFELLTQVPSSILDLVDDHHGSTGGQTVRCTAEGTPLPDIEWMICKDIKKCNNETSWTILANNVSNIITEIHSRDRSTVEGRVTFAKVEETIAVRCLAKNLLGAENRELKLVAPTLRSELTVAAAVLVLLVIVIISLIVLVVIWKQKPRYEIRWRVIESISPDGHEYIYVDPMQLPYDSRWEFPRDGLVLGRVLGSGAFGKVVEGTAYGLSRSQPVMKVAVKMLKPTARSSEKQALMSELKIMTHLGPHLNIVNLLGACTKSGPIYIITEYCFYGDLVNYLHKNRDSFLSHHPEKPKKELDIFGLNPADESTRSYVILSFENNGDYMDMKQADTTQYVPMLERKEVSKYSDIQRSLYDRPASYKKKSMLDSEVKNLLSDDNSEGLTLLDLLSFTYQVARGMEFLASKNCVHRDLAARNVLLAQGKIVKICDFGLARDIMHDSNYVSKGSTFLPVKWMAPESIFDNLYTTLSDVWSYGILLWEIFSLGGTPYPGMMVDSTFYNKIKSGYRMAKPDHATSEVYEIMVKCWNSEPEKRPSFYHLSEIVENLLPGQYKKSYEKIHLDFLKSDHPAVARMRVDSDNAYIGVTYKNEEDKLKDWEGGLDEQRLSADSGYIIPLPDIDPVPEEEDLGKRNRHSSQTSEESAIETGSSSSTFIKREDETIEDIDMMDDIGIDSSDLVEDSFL
Data set [8] is described as follows: Apparent passive permeability of compound in human Caco-2 cells at 1 uM and measured after 2 hrs by LC-MS/MS analysis. The class given is ADME, cell-based.
In data set [9] the target is Tyrosine-protein kinase Lck (Homo sapiens, UniProt P06239). Nature of the data set: Inhibition of LCK (unknown origin) using 33P-ATP as substrate incubated for 120 mins by radiometric kinase assay.
Tyrosine-protein kinase Lck, sequence (P06239 whole entry): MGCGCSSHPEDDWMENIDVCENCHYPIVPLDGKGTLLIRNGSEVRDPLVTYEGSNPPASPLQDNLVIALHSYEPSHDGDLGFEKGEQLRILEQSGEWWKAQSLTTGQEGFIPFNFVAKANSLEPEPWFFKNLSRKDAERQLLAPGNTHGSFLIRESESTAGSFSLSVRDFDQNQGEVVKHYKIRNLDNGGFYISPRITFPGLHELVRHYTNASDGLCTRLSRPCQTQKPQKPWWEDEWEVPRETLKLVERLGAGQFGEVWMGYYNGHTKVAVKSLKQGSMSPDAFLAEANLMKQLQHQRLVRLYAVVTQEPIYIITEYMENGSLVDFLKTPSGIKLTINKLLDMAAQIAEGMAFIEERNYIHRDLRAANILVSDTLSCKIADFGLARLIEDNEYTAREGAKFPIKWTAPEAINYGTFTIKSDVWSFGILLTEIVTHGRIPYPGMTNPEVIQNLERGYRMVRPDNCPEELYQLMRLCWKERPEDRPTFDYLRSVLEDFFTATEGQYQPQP
The nature of data set [10]: Genotoxicity in Salmonella typhimurium by Ames test. The class given is toxicity. As to conditions: salmonella enterica subsp. enterica serovar typhimurium.
The target of data set [11] is T1, Platelet-derived growth factor receptor alpha. Put plainly: Inhibition of PDGFRA (unknown origin) using 33P-ATP as substrate incubated for 120 mins by radiometric kinase assay.
Data set [12] is described as follows: Oral bioavailability in CD-1 mouse at 10 mg/kg and measured upto 24 hrs. The class given is ADME, organism-based. As to conditions: in vivo.
Data set [13] concerns the target Mast/stem cell growth factor receptor Kit (Homo sapiens, UniProt P10721, N822K). Put plainly: Inhibition of KIT N822K mutant autophosphorylation in human Kasumi 1 cells harboring KIT N822K mutation in exon 17 incubated for 45 mins by Luminex-based bead assay. The class given is cell-based.
Data set [14] can be described thus: Half life in Cynomolgus monkey at 0.2 mg/kg, iv and measured upto 24 hrs. The class given is ADME, organism-based, Macaca fascicularis. As to conditions: in vivo.
The target in data set [15] is Macrophage colony-stimulating factor 1 receptor (Homo sapiens, UniProt P07333). Put plainly: Inhibition of CSF1R (unknown origin) at 1 uM using 33P-ATP as substrate incubated for 120 mins by radiometric kinase assay.
The target of data set [16] is Platelet-derived growth factor receptor beta (Homo sapiens, UniProt P09619). Put plainly: Inhibition of PDGFRB (unknown origin) using 33P-ATP as substrate incubated for 120 mins by radiometric kinase assay.
Platelet-derived growth factor receptor beta, sequence (P09619 whole entry): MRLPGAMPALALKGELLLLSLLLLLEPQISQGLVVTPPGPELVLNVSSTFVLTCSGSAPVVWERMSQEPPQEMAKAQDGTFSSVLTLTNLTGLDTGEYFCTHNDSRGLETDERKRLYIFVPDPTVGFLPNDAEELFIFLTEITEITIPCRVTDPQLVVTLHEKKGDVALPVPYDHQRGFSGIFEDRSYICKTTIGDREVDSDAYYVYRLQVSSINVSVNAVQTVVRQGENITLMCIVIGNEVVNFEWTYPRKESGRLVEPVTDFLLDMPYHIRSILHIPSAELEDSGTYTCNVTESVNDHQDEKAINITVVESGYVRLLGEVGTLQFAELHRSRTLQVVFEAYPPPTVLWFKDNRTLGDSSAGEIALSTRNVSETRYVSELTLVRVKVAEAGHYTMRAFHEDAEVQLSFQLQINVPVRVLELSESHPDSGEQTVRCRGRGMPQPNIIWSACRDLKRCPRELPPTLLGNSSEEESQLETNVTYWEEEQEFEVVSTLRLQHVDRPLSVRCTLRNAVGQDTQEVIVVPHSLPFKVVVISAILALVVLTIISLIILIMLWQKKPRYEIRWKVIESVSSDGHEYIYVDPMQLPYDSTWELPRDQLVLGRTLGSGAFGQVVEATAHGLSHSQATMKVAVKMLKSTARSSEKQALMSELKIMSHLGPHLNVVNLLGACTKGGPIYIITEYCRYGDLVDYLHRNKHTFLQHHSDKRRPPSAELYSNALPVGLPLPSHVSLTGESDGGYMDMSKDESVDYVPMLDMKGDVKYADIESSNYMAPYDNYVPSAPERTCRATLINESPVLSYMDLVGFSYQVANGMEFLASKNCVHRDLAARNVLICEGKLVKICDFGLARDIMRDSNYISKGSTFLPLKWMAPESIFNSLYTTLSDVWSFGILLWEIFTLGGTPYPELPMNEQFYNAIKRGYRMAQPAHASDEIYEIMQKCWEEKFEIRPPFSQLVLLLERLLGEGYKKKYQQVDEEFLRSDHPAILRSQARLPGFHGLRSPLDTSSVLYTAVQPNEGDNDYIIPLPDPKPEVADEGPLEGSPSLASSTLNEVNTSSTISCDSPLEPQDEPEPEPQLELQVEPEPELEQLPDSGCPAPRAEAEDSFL
The subject of data set [17] is Mast/stem cell growth factor receptor Kit (Homo sapiens), P10721 [V559D]. Nature of the data set: Inhibition of recombinant human KIT V559D mutant in exon 11 using polyGT and ATP as substrate preincubated for 20 mins followed by substrate addition and measured after 240 mins by FRET assay. The conditions noted are these: time 260.0 min.

Mast/stem cell growth factor receptor Kit (Homo sapiens, UniProt P10721, N822K), sequence (P10721 26-976 N822K limits assumed): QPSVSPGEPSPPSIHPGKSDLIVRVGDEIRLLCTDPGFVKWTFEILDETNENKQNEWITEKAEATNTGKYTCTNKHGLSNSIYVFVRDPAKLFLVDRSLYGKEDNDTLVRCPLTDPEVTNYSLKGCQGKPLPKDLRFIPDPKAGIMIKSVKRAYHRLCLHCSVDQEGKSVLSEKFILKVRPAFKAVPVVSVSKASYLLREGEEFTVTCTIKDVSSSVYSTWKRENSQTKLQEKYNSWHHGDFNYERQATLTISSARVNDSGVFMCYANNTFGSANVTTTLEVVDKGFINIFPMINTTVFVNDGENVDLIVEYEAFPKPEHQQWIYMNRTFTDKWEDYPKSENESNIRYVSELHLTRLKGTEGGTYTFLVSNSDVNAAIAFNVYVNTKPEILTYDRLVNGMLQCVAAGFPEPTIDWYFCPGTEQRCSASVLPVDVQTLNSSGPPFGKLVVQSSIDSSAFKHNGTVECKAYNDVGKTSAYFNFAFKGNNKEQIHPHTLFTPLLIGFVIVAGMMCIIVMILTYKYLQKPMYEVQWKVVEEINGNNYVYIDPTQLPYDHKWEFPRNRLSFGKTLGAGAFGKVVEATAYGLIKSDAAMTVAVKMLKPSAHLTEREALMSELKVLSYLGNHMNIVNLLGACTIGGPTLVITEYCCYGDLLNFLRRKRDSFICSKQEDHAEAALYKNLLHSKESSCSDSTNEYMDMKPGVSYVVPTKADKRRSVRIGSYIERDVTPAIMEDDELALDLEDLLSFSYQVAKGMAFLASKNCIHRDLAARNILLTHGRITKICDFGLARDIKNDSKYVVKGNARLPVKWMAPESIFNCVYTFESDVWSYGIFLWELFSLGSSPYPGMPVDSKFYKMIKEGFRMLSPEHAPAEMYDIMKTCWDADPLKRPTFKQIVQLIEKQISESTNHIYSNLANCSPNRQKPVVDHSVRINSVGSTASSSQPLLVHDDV
Mast/stem cell growth factor receptor Kit (Homo sapiens), P10721 [V559D], sequence (P10721 whole entry V559D): as the sequence (P10721 whole entry) above, with V559D counted along it

Consider `Cn1cc(-c2ccc(CNc3cc(-c4cnc5cc(OCCCN6CCCC6)ccn45)ncn3)cc2)cn1` [IDRX-42], for which the inhibition result in the data set on GIST-430/654 was “Dose-Dependent Effect”; in data set [1], above 80%; in data set [7] it was above 80%; in data set [15] it was above 80%. In addition, the results for the bioavailability in data set [2] and in data set [12] were 80% and 46%, respectively. This molecule came in with a solubility in data set [3] of 374 µg/mL (≈ 735 µM). Further, the outcome in the data set on GIST430 was inactive. Further, the efflux ratio at 2 h, 1 µM in [4] was 14. In addition, in [5], the Vd was determined as 11 L/kg. The inhibition result in [6] and in data set [17] was “Active” in each case. In addition, the Papp at 2 h, 1 µM in data set [8] was 5.7 ×10⁻⁶ cm/s. Further, the IC50 turned out to be 141 nM in data set [9], 50 nM in [11], 4 nM in data set [13] and 2.6 nM in [16]. The Activity result in data set [10] is on record as “Non-Toxic”. The molecule further showed a half-life in data set [14] of 4.4 h.

The values above are taken from ChEMBL document CHEMBL5380790 (J Med Chem, 2023).
